Several values for one entry are separate records, joined by “and”; a condition that tells them apart may be missing. Equal entries are not always repeated.

The text below walks through data of patent US20170035706A1, “DETRUSOR HYPERACTIVITY WITH IMPAIRED CONTRACTILITY AMELIORATING AGENT” (TAIHO PHARMACEUTICAL CO., LTD., priority 2015, published 2017).

In the experiment the test system is rat dysuria model that presents DHIC. Description: Cystometry and nomogram analysis in rat dysuria model that presents DHIC (partial ligation of urethra). The format is in vivo. Here is the method:
The models were produced by partial ligation ((1)1.57 mm) of urethra in rats (9 weeks, female, Sprague-Dawley). Six weeks after preparation of the model, the rats were released the ligation. The next day, the intravesical pressure and the voided volume were measured under awake condition. And the detrusor contractility during voiding phase was evaluated by nomogram analysis using Qmax and Pdet. Additionally, the detrusor overactivity, as index of overactive bladder, and the increase of residual urine volume, as index of underactive bladder, were evaluated.
The dysuria models in this example were prepared in the same manner as in Test Example 1. The test drugs (vehicle: 6% Gelucire, Compound 1 of the present invention 10 mg/kg) were orally administered to each group after two weeks from the preparation of the models twice a day for four weeks. On the day of the final administration, the rats were released the ligation of urethra. The next day, the intravesical pressure and the voided volume were measured using cystometry under conscious condition. The detrusor overactivity, as an index of overactive bladder, and the increase of residual urine volume, as an index of underactive bladder, were evaluated. Additionally, the detrusor contractility during voiding phase was evaluated by nomogram analysis using Qmax and Pdet.
In the same manner as Test Example 1, the rats were released the ligation of urethra at six weeks after the preparation of the model. The next day, the intravesical pressure and the voided volume were measured using cystometry under conscious condition. The detrusor overactivity, as an index of overactive bladder, and the increase of residual urine volume, as an index of underactive bladder, were evaluated. Additionally, the detrusor contractility during voiding phase was evaluated by nomogram analysis using Qmax and Pdet. Tamsulosin (3 μg/kg) was administered intravenously to the dysuria rat at the evaluation (six weeks after preparation of the model).

Turning to `CC1=C(CCCCCCCCCCCCCCCO)C(C)(C)CCC1=O` [Compound 1 of the present invention, 3-(15-hydroxypentadecyl)-2,4,4-trimethyl-2-cyclohexene-1-one], for the setting “10 mg/kg orally twice a day for four weeks, control 4.24±0.53, sham 24.75±3.14”, the “Detrusor contractility during voiding phase: distance from the origin in nomogram analysis (Qmax, Pdet)” value amounted to 10.5±2.3. This compound registered a Residual urine volume (female Sprague-Dawley rats, 10 mg/kg orally twice a day for four weeks, conscious cystometry, control 0.57 ± 0.06, sham 0.10 ± 0.03, 10 mg/kg) of 0.28 ± 0.13 mL. Further, the Detrusor overactivity (female Sprague-Dawley rats, 10 mg/kg orally twice a day for four weeks, conscious cystometry, control 1.73 ± 0.10, sham 0.19 ± 0.09, 10 mg/kg) is 0.63±0.14 times/min and 0.63 ± 0.10 times/min.
As for `CCOc1ccccc1OCCN[C@H](C)Cc1ccc(OC)c(S(N)(=O)=O)c1` [Tamsulosin, reference compound], the “Detrusor contractility in nomogram analysis” value (3 μg/kg intravenously at the evaluation, vs control (FIG. 2)) is listed as “no effect”. Besides, the Detrusor overactivity (female Sprague-Dawley rats, 3 μg/kg intravenously at the evaluation, conscious cystometry, control 1.73 ± 0.10) was found to be 0.68±0.33 times/min.
